Experimental data: ChEMBL document CHEMBL3885881, “DrugMatrix”

Species on record: Rattus norvegicus
Test: DrugMatrix - Regimen: Daily Repeat
Format: toxicity, organism-based, Sprague-Dawley
Parameters: regimen Daily Repeat, gender Male, age 6-8 weeks
Conditions: in vivo, po, 80 mg/kg, route oral GAVAGE, dose level High, vehicle .5 % CMC; for ABSOLUTE BASOPHIL / ABSOLUTE EOSINOPHIL / ABSOLUTE LYMPHOCYTE / ABSOLUTE MONOCYTE / ABSOLUTE SEGMENTED NEUTROPHIL / BASOPHIL / EOSINOPHIL / ERYTHROCYTE COUNT / HEMATOCRIT / HEMOGLOBIN / LEUKOCYTE COUNT / LYMPHOCYTE / MEAN CORPUSCULAR HEMOGLOBIN / MEAN CORPUSCULAR HEMOGLOBIN CONCENTRATION / MEAN CORPUSCULAR VOLUME / MONOCYTE / NEUTROPHIL / PLATELET COUNT: tissue Blood; for ALANINE AMINOTRANSFERASE / ALBUMIN / ALKALINE PHOSPHATASE / ASPARTATE AMINOTRANSFERASE / BLOOD UREA NITROGEN / CHLORIDE / CHOLESTEROL / CREATINE PHOSPHOKINASE / CREATININE / GLUCOSE / LACTATE DEHYDROGENASE / LIPASE / PHOSPHORUS / POTASSIUM / SODIUM / TOTAL BILIRUBIN / TOTAL PROTEIN / URIC ACID: tissue Plasma

SMILES: O=c1cc(-c2ccccc2)oc2c1ccc1ccccc12 [ALPHA-NAPHTHOFLAVONE]
- ABSOLUTE BASOPHIL (120 h, time 5 day): 170 cells/µL
- ABSOLUTE EOSINOPHIL (120 h, time 5 day): 42.5 cells/µL
- ABSOLUTE LYMPHOCYTE (120 h, time 5 day): 11500 cells/µL
- ABSOLUTE MONOCYTE (120 h, time 5 day): 230 cells/µL
- ABSOLUTE SEGMENTED NEUTROPHIL (120 h, time 5 day): 1790 cells/µL
- BASOPHIL (120 h, time 5 day): 1.35%
- EOSINOPHIL (120 h, time 5 day): 0.35%
- ERYTHROCYTE COUNT (120 h, time 5 day): 7.43 x10E6/uL
- HEMATOCRIT (120 h, time 5 day): 46.52%
- HEMOGLOBIN (120 h, time 5 day): 15.82 G/DL
- LEUKOCYTE COUNT (120 h, time 5 day): 13.81 x10E3/uL
- LYMPHOCYTE (120 h, time 5 day): 82.92%
- MEAN CORPUSCULAR HEMOGLOBIN (120 h, time 5 day): 21.35 pg
- MEAN CORPUSCULAR HEMOGLOBIN CONCENTRATION (120 h, time 5 day): 34.08 G/DL
- MEAN CORPUSCULAR VOLUME (120 h, time 5 day): 62.67 fL
- MONOCYTE (120 h, time 5 day): 1.57%
- NEUTROPHIL (120 h, time 5 day): 13.3%
- PLATELET COUNT (120 h, time 5 day): 1518.75 x10E3/uL
- ALANINE AMINOTRANSFERASE (120 h, time 5 day): 31.25 u/L
- ALBUMIN (120 h, time 5 day): 3.65 G/DL
- ALKALINE PHOSPHATASE (120 h, time 5 day): 212.25 u/L
- ASPARTATE AMINOTRANSFERASE (120 h, time 5 day): 78.25 u/L
- BLOOD UREA NITROGEN (120 h, time 5 day): 9.25 mg/dL
- CHLORIDE (120 h, time 5 day): 108 MEQ/L
- CHOLESTEROL (120 h, time 5 day): 61 mg/dL
- CREATINE PHOSPHOKINASE (120 h, time 5 day): 190.25 u/L
- CREATININE (120 h, time 5 day): 0.53 mg/dL
- GLUCOSE (120 h, time 5 day): 111 mg/dL
- LACTATE DEHYDROGENASE (120 h, time 5 day): 112.75 u/L
- LIPASE (120 h, time 5 day): 16.75 u/L
- PHOSPHORUS (120 h, time 5 day): 12.3 mg/dL
- POTASSIUM (120 h, time 5 day): 6.75 MEQ/L
- SODIUM (120 h, time 5 day): 151.5 MEQ/L
- TOTAL BILIRUBIN (120 h, time 5 day): 0.23 mg/dL
- TOTAL PROTEIN (120 h, time 5 day): 6.07 G/DL
- URIC ACID (120 h, time 5 day): 0.72 mg/dL
- ABSOLUTE BASOPHIL (2184 h, time 91 day): 340 cells/µL
- ABSOLUTE EOSINOPHIL (2184 h, time 91 day): 100 cells/µL
- ABSOLUTE LYMPHOCYTE (2184 h, time 91 day): 10400 cells/µL
- ABSOLUTE MONOCYTE (2184 h, time 91 day): 180 cells/µL
- ABSOLUTE SEGMENTED NEUTROPHIL (2184 h, time 91 day): 1510 cells/µL
- BASOPHIL (2184 h, time 91 day): 2.59%
- EOSINOPHIL (2184 h, time 91 day): 0.83%
- ERYTHROCYTE COUNT (2184 h, time 91 day): 9.33 x10E6/uL
- HEMATOCRIT (2184 h, time 91 day): 49.58%
- HEMOGLOBIN (2184 h, time 91 day): 16.44 G/DL
- LEUKOCYTE COUNT (2184 h, time 91 day): 12.6 x10E3/uL
- LYMPHOCYTE (2184 h, time 91 day): 82.74%
- MEAN CORPUSCULAR HEMOGLOBIN (2184 h, time 91 day): 17.63 pg
- MEAN CORPUSCULAR HEMOGLOBIN CONCENTRATION (2184 h, time 91 day): 33.15 G/DL
- MEAN CORPUSCULAR VOLUME (2184 h, time 91 day): 53.18 fL
- MONOCYTE (2184 h, time 91 day): 1.38%
- NEUTROPHIL (2184 h, time 91 day): 12.04%
- PLATELET COUNT (2184 h, time 91 day): 1261.8 x10E3/uL
- ALANINE AMINOTRANSFERASE (2184 h, time 91 day): 28.3 u/L
- ALBUMIN (2184 h, time 91 day): 3.77 G/DL
- ALKALINE PHOSPHATASE (2184 h, time 91 day): 94.2 u/L
- ASPARTATE AMINOTRANSFERASE (2184 h, time 91 day): 64.7 u/L
- BLOOD UREA NITROGEN (2184 h, time 91 day): 15.9 mg/dL
- CHLORIDE (2184 h, time 91 day): 103.2 MEQ/L
- CHOLESTEROL (2184 h, time 91 day): 70.3 mg/dL
- CREATINE PHOSPHOKINASE (2184 h, time 91 day): 80.9 u/L
- CREATININE (2184 h, time 91 day): 0.54 mg/dL
- GLUCOSE (2184 h, time 91 day): 152 mg/dL
- LACTATE DEHYDROGENASE (2184 h, time 91 day): 46.3 u/L
- LIPASE (2184 h, time 91 day): 18.7 u/L
- PHOSPHORUS (2184 h, time 91 day): 8.35 mg/dL
- POTASSIUM (2184 h, time 91 day): 6.21 MEQ/L
- SODIUM (2184 h, time 91 day): 149.8 MEQ/L
- TOTAL BILIRUBIN (2184 h, time 91 day): 0.21 mg/dL
- TOTAL PROTEIN (2184 h, time 91 day): 7.38 G/DL
- URIC ACID (2184 h, time 91 day): 0.89 mg/dL
- ABSOLUTE BASOPHIL ([…], time 28 day): 200 cells/µL
- ABSOLUTE EOSINOPHIL ([…], time 28 day): 76 cells/µL
- ABSOLUTE LYMPHOCYTE ([…], time 28 day): 13000 cells/µL
- ABSOLUTE MONOCYTE ([…], time 28 day): 200 cells/µL
- ABSOLUTE SEGMENTED NEUTROPHIL ([…], time 28 day): 1710 cells/µL
- BASOPHIL ([…], time 28 day): 1.28%
- EOSINOPHIL ([…], time 28 day): 0.48%
- ERYTHROCYTE COUNT ([…], time 28 day): 8.57 x10E6/uL
- HEMATOCRIT ([…], time 28 day): 47.9%
- HEMOGLOBIN ([…], time 28 day): 15.96 G/DL
- LEUKOCYTE COUNT ([…], time 28 day): 15.29 x10E3/uL
- LYMPHOCYTE ([…], time 28 day): 85.76%
- MEAN CORPUSCULAR HEMOGLOBIN ([…], time 28 day): 18.62 pg
- MEAN CORPUSCULAR HEMOGLOBIN CONCENTRATION ([…], time 28 day): 33.3 G/DL
- MEAN CORPUSCULAR VOLUME ([…], time 28 day): 55.92 fL
- MONOCYTE ([…], time 28 day): 1.36%
- NEUTROPHIL ([…], time 28 day): 10.8%
- PLATELET COUNT ([…], time 28 day): 1456 x10E3/uL
- ALANINE AMINOTRANSFERASE ([…], time 28 day): 26.4 u/L
- ALBUMIN ([…], time 28 day): 3.66 G/DL
- ALKALINE PHOSPHATASE ([…], time 28 day): 157.4 u/L
- ASPARTATE AMINOTRANSFERASE ([…], time 28 day): 65.6 u/L
- BLOOD UREA NITROGEN ([…], time 28 day): 13.6 mg/dL
- CHLORIDE ([…], time 28 day): 104 MEQ/L
- CHOLESTEROL ([…], time 28 day): 49.8 mg/dL
- CREATINE PHOSPHOKINASE ([…], time 28 day): 102 u/L
- CREATININE ([…], time 28 day): 0.46 mg/dL
- GLUCOSE ([…], time 28 day): 153.8 mg/dL
- LACTATE DEHYDROGENASE ([…], time 28 day): 60 u/L
- LIPASE ([…], time 28 day): 19 u/L
- PHOSPHORUS ([…], time 28 day): 9.14 mg/dL
- POTASSIUM ([…], time 28 day): 5.7 MEQ/L
- SODIUM ([…], time 28 day): 151 MEQ/L
- TOTAL BILIRUBIN ([…], time 28 day): 0.22 mg/dL
- TOTAL PROTEIN ([…], time 28 day): 6.76 G/DL
- URIC ACID ([…], time 28 day): 0.26 mg/dL
